Test results published in patent publication US11000490B2, “Stable aqueous capsaicin injectable formulations and medical uses thereof” (priority 2016, dated 2021).

Assays:
[1] = in vivo; conditions: both sexes, New Zealand White, rabbit, rabbits, 0.3 mg trans-capsaicin as Capsaicin Formulation A, intra-articular, Day 1, combined males and females
Procedure: Animals were administered a single dose of test article (i.e., Capsaicin Formulation A, or placebo) on Day 1 via intra-articular injection into the right stifle joint. Dosing was followed by an observation period of 4 weeks. […] Prior to injection of test article, animals were sedated via gas anesthesia with sevoflurane. The gas was administered by designated technicians using a nose cone. Following anesthesia but prior to intra-articular injection, the injection site was prepared aseptically with three or more chlorhexidine scrubs, wiping with sterile water between each scrub. Animals were administered 1 mg/kg of midazolam and 0.6 mg/kg of meloxicam SR subcutaneously prior to gas anesthesia. […] The animal was monitored for pain and discomfort during recovery and was returned to its home cage after complete recovery. […] Additional pain management of animals was monitored by veterinary staff.
Assessment of toxicity was based on mortality, clinical observations (including qualitative food consumption), body weights, physical examinations, and clinical and anatomic pathology. […] Plasma samples were analyzed for capsaicin content. […] Abnormal findings or an indication of normal were recorded. Body weights were recorded twice during the pre-dose phase and on Days 1, 8, 15, and 22 of the dosing phase. […]

[2] = tested on: New Zealand White rabbits; conditions: single intra-articular dose as Capsaicin Formulation A
[3] = tested on: purebred beagle dogs; conditions: single intra-articular dose via Capsaicin Formulation A

For `COc1cc(CNC(=O)CCCCC=CC(C)C)ccc1O` [trans-capsaicin, N-[(4-hydroxy-3-methoxyphenyl)methyl]-8-methylnon-6-enamide], the Cmax [1] was 37.9 ng/mL, the AUC(0-t) ([1]; read-out: mean AUC0-24) was 27.8 ng·h/mL and the “no observed adverse effect level (NOAEL)” value [2] was 0.3 mg. The “no observed adverse effect level (NOAEL)” value [3] was 1 mg.
